This is an account of results in patent publication US11339175B2, “Thiol-based fluorescent probe for reactive species” (The Board of Trustees of the University of Illinois, priority 2018, dated 2022).

Data set [1] in a line: Fluorescence turn-on response to HNO (Angeli's salt) in vitro. As for the experimental part:
(§1) FIG. 2. a) Fluorescence spectra of NitroxylFluor (2 μM) upon addition of AS (100 μM). b) Fluorescence kinetic trace of NitroxylFluor upon addition of 1 mM Angeli's salt, arrow indicates time of addition. c) Response of NitroxylFluor to various reactive oxygen, sulfur, and nitrogen species at concentrations of 100 μM (GSH was tested at 1 mM). Measurements were taken 15 minutes into treatment. d) Competition assays against various thiols. Control indicates no addition of Angeli's salt. Statistics are compared to the control. *, p<0.05; ***, p<0.001; p<0.0001. (n=3).
(§2) FIG. 4. The normalized fluorescence turn-on response of NitroxylBlue-1, -2, and -3 treated with a vehicle control and incubated in PBS at 37° C. are shown in black. The normalized fluorescence turn-on response of NitroxylBlue-1, -2, and -3 treated with 100 μM Angeli's salt are shown in green. All data was taken 10 minutes after treatment. Statistical significance measured with respect to the corresponding control. *, p<0.05; **, p<0.01. (n=3).
Angeli's salt was stored at −20° C. Stocks of Angeli's salt were added as a 10 mM solution in 10 mM KOH (for stability). Hydrogen peroxide was added as a 10 mM stock solution prepared by diluting 30% hydrogen peroxide in deionized water. Superoxide was added as a 1 mM stock solution of potassium superoxide in DMSO (for stability). […]

A short description of data set [2]: Stability in aqueous media: background fluorescence turn-on with vehicle control. It is filed as physicochemical. The following applies: PBS. Here is the method: as §2
FIG. 5. The normalized fluorescence turn-on response of S-methyl NitroxylBlue treated with vehicle control (black) or Angeli's salt (100 μM) and incubated in PBS at 25° C. All data was taken 15 minutes after treatment.

Data set [3] is described as follows: Thiol pKa by UV/vis absorbance at 230 nm. The note with it: Britton-Robinson Universal Buffer. The class given is physicochemical. The text has this: Assay was completed by measuring the absorbance at 230 nm as described by Tajc et al. (J Am Chem Soc 2004, 126, 10508). Each reading was taken in triplicate and averaged in the respective pH Britton-Robinson Universal Buffer.

For data set [4] the following is noted: reported value; cited from earlier work.
Data set [5] relates to MDA-MB-231 cells. As to the kind of experiment: Confocal imaging of HNO in living cells. The class given is cell-based, human. Here is the method:
FIG. 3. Confocal microscopy images acquired by irradiation of MDA-MB-231 cells treated with 0 μM (vehicle control), 250 μM, 500 μM, 1000 μM Angeli's salt for 15 mins at 25° C. with a 488 nm laser. Images taken through a 40× oil immersion objective. Scale bar represents 20 μm. b) Quantification of imaging data. *, p<0.05; ***, p<0.001; p<0.0001.
FIG. 8. Representative time course imaging of MDA-MB-231 cells stained with 4 μM NitroxylFluor for 15 minutes followed by replacement with fresh PBS with no probe. Angeli's salt (200 μM) was added 5 minutes after PBS was replaced. Images were taken through a 40× oil immersion objective at 0, 10, and 20 mins after AS addition at 25° C. via irradiation with a 488 nm laser. Scale bar represents 20 μm.
MDA-MB-231 adenocarcinoma cells were acquired from Prof. David J. Shapiro (Biochemistry, UIUC). Cells were cultured in phenol-red free Dulbecco's modified eagle medium (DMEM, Corning) supplemented with 10% fetal bovine serum (FBS, Sigma Aldrich), and 1% penicillin/streptomycin (Corning). Cells were incubated at 37° C. with 5% CO2. Experiments were performed in 8-well chambered cover glasses (Lab-Tek, Thermo Scientific).
An 8-well chambered cover glass was seeded with 0.4 mL of the above-mentioned cells at a density of 200,000 cells/mL. Cells were imaged at roughly 80% confluency (24 hours after seeding). Media was removed from each well and cells were washed with 200 μL PBS. The PBS was removed from the wells and replaced with 198 μL. 2 μL of 200 μM NitroxylFluor in PBS was added and gently stirred before being allowed to incubate at 37° C. with 5% CO2 for 15 minutes. PBS was then removed from the wells and replaced with 195 μL, 190 μL, or 180 μL PBS. The remaining volume to 200 μL was filled with 10 mM Angeli's salt in 10 mM KOH (or 10 mM KOH in the vehicle control) to give final concentrations of 0.250 mM, 0.500 mM, or 1 mM Angeli's salt. […] 3-5 images of each well were taken and their mean fluorescence (as reported by ImageJ) was averaged to give an average value for each well. […]

A short description of data set [6]: Selectivity against reactive oxygen, sulfur and nitrogen species. Here is the method:
as §1
Angeli's salt was stored at −20° C. Stocks of Angeli's salt were added as a 10 mM solution in 10 mM KOH (for stability). […]
Hydroxyl radical was prepared by first preparing a 10 mM solution of Mohr's Salt (Fe(NH4)2(SO4)2.6H2O in 0.1 M HCl which was degassed by bubbling nitrogen gas for 20 minutes through the solution. A solution of the probe was made in buffer and degassed and the initial reading was taken. 10 μL of 10 mM Hydrogen Peroxide and Mohr's salt solution giving a final volume of 1 mL (100 μM hydroxyl radical) were added and allowed to incubate at 37° C. for the duration of the selectivity assay with a septum on the cuvette. Iron(II) was prepared via the same procedure as hydroxyl radical only hydrogen peroxide was not added. […]

In data set [7] the test system is MDA-MB-231 cells. Nature of the data set: MTT cytotoxicity assay. It is filed as cell-based, human. As for the experimental part: FIG. 9. MTT assay to determine the cytotoxicity of NitroxylFluor at 4 μM over 3, 6, and 24 hours. Detailed protocol available on page 3 of this supporting information document.
A 96-well plate was seeded with 20,000 cells per well (200 μL of 150,000 cells/mL) and incubated at 37° C. with 5% CO2 for 24 h (˜70% confluent). […] After 3, 6, and 24 h the media was removed and replaced with […] 20:1 mixture of FBS-free DMEM and (3-(4,5-dimethylthiazol-2-yl)-2,5-diphenyl-tetrazolium bromide (MTT, 5 mg/mL stock in PBS). The cells were incubated for 4 h under the same conditions and then the medium was removed and replaced with DMSO ([…]). The absorbance of each well was recorded at 555 nm on a microplate reader. Viability was calculated by the absorbance relative to the vehicle control. Results pictured in FIG. 7.

A short description of data set [8]: Competition assays against thiols for HNO. The note with it: 10 μM probe, Angeli's salt 200 μM. Here is the method: FIG. 2. a) Fluorescence spectra of NitroxylFluor (2 μM) upon addition of AS (100 μM). b) Fluorescence kinetic trace of NitroxylFluor upon addition of 1 mM Angeli's salt, arrow indicates time of addition. c) Response of NitroxylFluor to various reactive oxygen, sulfur, and nitrogen species at concentrations of 100 μM (GSH was tested at 1 mM). Measurements were taken 15 minutes into treatment. d) Competition assays against various thiols. Control indicates no addition of Angeli's salt. […] (n=3).
In these experiments, 10 μM solutions of NitroxylFluor and various thiols such as L-cysteine (100 μM), N-acetyl-L-cysteine (100 μM), and GSH (1 mM) was treated with Angeli's salt (200 μM) (FIG. 2d).

For orientation: pKa means the negative logarithm of the acid dissociation constant. High values mean a weaker acid or stronger base, low ones a stronger acid or weaker base.

With `Cc1cc(=O)oc2cc(OC(=O)C(C)(C)S)ccc12` [NB-2], the “fluorescence turn-on response with Angeli's salt” value in data set [1] (100 μM Angeli's salt, PBS, 37° C., 10 minutes after treatment) is 3.5 fold. In data set [2] (vehicle control, 37° C., after 10 minutes), the “background fluorescence turn-on (hydrolysis / alpha-thiolactonization)” value is recorded as 1.6 fold.
`COC(=O)C(C)(C)S` [compound 16, Methyl 2-mercapto-2-methylpropanoate] displayed a pKa in data set [3] of 8.01.
Take `N[C@@H](CCC(=O)N[C@@H](CS)C(=O)NCC(=O)O)C(=O)O` [GSH, glutathione]: the “reported pKa” value in data set [4] is reported as 9.42.
Regarding `CC(C)(S)C(=O)Oc1c(Cl)cc2c(c1Cl)Oc1cc(O)ccc1C21OCc2ccccc21` (stereo not shown) [NitroxylFluor], the “fluorescent turn-on response on reaction with HNO” value in data set [1] (NitroxylFluor 2 μM, Angeli's salt 100 μM, in a matter of seconds) worked out at 16 fold. The “fluorescence enhancement at lowest Angeli's salt concentration” value in the data set on MDA-MB-231 cells [5] (250 μM Angeli's salt, 15 mins) is “statistically significant enhancement”. Besides, in the data set on MDA-MB-231 cells [5] (500 μM Angeli's salt, images every 1 min for 20 mins), the “fluorescence during time-lapse imaging” value is “gradual increase in the fluorescence”. Also, the “fluorescence turn-on response in cells” value with MDA-MB-231 cells [5] (Angeli's salt 250 μM to 1000 μM, after 15 mins) is on record as “dose-dependent fluorescence turn-on response”. For the same compound, in data set [6] (e.g. H2S, NO, 100 μM, 15-minute incubation at 37° C.), the “change in fluorescence with reactive sulfur and nitrogen species” value is on record as “no change in fluorescence”. For the same compound, the cross-reactivity with oxidants result in data set [6] (oxidants incl. H2O2, 100 μM, 15 minutes) is “not observed”. Besides, the “cytotoxicity (MTT) versus DMSO control” value in the data set with MDA-MB-231 cells [7] (4 μM, 3, 6, and 24 hours, n=3) is “No time point has significant difference from the DMSO control”. In addition, the “cytotoxicity (MTT)” value in the data set with MDA-MB-231 cells [7] (10 μM probe, 3, 6, and 24 h) was “Cytotoxicity at any time point was not observe”. In data set [8] (GSH 1 mM), the “fluorescent turn-on response in presence of GSH” value is recorded as 3.9 fold. For the same compound, in data set [8] (L-cysteine 100 μM), the “fluorescence increase in competition with L-cysteine” value was 16.2 fold. For the same compound, in data set [8] (N-acetyl-L-cysteine 100 μM), the “fluorescence enhancement in competition with N-acetyl-L-cysteine” value stood at 9.8 fold.
For `CSC(C)(C)C(=O)Oc1ccc2c(C)cc(=O)oc2c1` [S-Methyl NitroxylBlue-2, reference compound], in data set [2] (25° C., 15 minutes), the “hydrolysis after incubation in aqueous media” value is given as “No hydrolysis was observed”.
